Assay [1] addresses Fatty Acid Synthase Keto-reductase Domain (FASN KR) (Homo sapiens, UniProt P49327). Description: Fatty Acid Synthase keto-reductase domain (FASN KR) inhibition, NADPH oxidation at 340 nm.
Description: After 20 minutes incubation at room temperature the plate was measured again (T2).
The decrease in absorbance was calculated as (Absorbance before incubation T1)−(Absorbance following incubation T2).
A plot of Controlmin versus test compound concentration was fitted to a 4-parameter logistic curve using a non-linear least squares regression method.
Assay [2] has as its target T1, hFASN enzyme (full length) (Homo sapiens, UniProt P49327).
T1 construct: 10 μL hFASN enzyme (full length, 300 ng, purified in house); made in house
Nature of the assay: Fatty Acid Synthase (FASN) inhibition scintillation proximity assay. It is filed as biochemical. The note with it: for inhibition at 10 µM: read-out: Human FASN % inhibition @ 10 μM, 10 μM test compound; for IC50: read-out: Human FASN pIC50 (converted). The gist of the method: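 Scintillation proximity format: in-house full-length enzyme, 300 ng per well, pH 7.5 phosphate/DTT buffer, ³H-acetyl-CoA and malonyl-CoA. Emission counted on LEADseeker at 610 nm at least 24 h after stopping.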

The test system of assay [3] is A2780 ovarian cells. Nature of the assay: A2780 ovarian cell proliferation assay in lipid reduced medium, with palmitate (MTT). The class given is cell-based. The note with it: Homo sapiens, A2780, 96 h; read-out: pIC50 A2780 Ovarian Cell, With Palmitate (converted). The gist of the method: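 In this palmitate-supplemented format, compound dilutions (30 μM down to 0.01 μM) are added to cells in lipid-reduced serum with 25 μM palmitate, 0.2% fatty-acid-free BSA and 0.25% ethanol. After four days (96 h) MTT absorbance at 544 nm is recorded and fitted by minimum sum of squares.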

Assay [4] concerns A2780 ovarian cells. Description: A2780 ovarian cell proliferation assay in lipid reduced medium, without palmitate (MTT). The following applies: Homo sapiens, A2780, 96 h; read-out: pIC50 A2780 Ovarian Cell, Without Palmitate (converted). It is filed as cell-based.

Some results are limits rather than exact numbers.

Fatty Acid Synthase Keto-reductase Domain (FASN KR), sequence (P49327 whole entry, the tested form may be a part): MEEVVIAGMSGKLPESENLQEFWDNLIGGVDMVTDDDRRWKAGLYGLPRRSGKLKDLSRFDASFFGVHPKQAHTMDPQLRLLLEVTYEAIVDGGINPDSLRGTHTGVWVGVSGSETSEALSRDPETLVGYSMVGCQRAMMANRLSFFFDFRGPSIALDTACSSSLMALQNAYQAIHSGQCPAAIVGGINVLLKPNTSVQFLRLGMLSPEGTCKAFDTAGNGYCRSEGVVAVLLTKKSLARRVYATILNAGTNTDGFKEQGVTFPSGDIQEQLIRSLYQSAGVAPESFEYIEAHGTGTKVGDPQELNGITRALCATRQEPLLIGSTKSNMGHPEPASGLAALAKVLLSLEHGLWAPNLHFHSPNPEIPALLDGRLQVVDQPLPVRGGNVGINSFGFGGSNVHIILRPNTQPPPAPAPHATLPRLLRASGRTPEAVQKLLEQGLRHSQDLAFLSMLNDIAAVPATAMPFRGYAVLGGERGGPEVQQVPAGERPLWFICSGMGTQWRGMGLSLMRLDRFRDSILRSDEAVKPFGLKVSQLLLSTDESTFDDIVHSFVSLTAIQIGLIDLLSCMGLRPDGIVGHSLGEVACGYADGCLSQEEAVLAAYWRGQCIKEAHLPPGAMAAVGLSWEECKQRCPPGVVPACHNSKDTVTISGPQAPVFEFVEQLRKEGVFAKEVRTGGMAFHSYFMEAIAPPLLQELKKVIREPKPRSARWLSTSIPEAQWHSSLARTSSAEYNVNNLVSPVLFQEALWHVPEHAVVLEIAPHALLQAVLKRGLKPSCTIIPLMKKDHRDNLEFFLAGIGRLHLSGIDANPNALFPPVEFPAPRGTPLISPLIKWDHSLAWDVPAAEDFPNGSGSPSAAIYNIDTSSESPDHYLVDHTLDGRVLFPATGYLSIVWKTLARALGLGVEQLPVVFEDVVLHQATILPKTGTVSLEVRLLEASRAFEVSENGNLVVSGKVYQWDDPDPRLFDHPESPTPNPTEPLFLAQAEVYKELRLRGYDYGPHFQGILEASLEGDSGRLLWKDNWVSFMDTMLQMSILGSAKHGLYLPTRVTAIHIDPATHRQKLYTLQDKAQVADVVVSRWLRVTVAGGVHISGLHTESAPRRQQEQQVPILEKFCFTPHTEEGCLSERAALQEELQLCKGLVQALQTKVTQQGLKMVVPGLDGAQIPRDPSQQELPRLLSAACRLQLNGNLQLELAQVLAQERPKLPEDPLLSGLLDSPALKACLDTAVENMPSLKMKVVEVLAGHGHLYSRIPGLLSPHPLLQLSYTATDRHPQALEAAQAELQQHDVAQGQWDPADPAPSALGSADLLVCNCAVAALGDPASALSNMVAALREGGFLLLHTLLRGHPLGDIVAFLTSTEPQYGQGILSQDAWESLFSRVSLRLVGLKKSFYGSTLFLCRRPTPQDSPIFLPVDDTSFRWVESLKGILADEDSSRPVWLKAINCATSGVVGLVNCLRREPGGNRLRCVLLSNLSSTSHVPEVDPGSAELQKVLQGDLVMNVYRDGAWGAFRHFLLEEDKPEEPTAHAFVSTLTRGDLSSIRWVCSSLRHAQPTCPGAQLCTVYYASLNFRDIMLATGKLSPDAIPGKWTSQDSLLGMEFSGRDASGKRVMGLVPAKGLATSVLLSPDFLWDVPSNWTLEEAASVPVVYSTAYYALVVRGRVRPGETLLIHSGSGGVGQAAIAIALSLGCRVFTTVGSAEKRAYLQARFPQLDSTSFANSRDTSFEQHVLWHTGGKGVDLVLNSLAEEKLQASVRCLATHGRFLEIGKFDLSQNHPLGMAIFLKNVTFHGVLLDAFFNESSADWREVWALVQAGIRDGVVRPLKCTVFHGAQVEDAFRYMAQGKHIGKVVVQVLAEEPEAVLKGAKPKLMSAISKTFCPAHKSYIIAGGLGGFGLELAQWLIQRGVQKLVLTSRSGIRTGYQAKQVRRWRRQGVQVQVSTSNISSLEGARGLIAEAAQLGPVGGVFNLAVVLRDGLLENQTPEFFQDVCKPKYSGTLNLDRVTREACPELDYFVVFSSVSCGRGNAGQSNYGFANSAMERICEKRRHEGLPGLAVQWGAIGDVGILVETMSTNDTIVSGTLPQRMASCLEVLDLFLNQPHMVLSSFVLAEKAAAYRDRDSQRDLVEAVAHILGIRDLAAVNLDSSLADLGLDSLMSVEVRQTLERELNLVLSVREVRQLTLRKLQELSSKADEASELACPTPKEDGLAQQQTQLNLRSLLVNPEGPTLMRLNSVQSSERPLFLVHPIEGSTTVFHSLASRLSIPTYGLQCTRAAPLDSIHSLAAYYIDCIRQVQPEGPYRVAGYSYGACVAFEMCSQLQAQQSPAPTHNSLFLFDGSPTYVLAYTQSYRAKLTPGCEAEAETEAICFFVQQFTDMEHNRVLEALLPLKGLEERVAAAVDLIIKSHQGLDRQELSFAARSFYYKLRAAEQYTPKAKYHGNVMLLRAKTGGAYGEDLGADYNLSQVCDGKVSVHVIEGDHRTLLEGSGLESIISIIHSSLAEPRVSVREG
T1 sequence (P49327 whole entry): as the sequence (P49327 whole entry, the tested form may be a part) above

Turning to `O=C(C1CC1)N1CC[C@H](CN2C(=O)C3(CC3)N=C2c2ccc(-c3ccc4[nH]ccc4c3)cc2)C1` [compound 210, (S)-5-(4-(1H-indol-5-yl)phenyl)-6-((1-(cy7clopropanecarbonyl)pyrrolidin-3-yl)methyl)-4,6-diazaspiro[2.4]hept-4-en-7-one], the IC50 in assay [1] was 170 nM; in assay [2], 89.1 nM; with A2780 ovarian cells [3] it was > 10000 nM; in the assay on A2780 ovarian cells [4] it was 52.5 nM. In assay [2], the inhibition at 10 µM turned out to be 103%.

With `O=C(C1CC1)N1CC[C@H](CN2C(=O)C3(CC3)N=C2c2ccc(-c3ccc4sccc4c3)cc2)C1` [compound 211, (S)-5-(4-(benzo[b]thiophen-5-yl)phenyl)-6-((1-(cyclopropanecarbonyl)pyrrolidin-3-yl)methyl)-4,6-diazaspiro[2.4]hept-4-en-7-one], the IC50 in assay [1] was 200 nM; in assay [2], 85.1 nM; with A2780 ovarian cells [3] it was > 10000 nM; with A2780 ovarian cells [4] it was ~708 nM. Besides, the inhibition at 10 µM in assay [2] was determined as 107%.

In the case of `O=C(C1CC1)N1CC[C@@H](CN2C(=O)C3(CC3)N=C2c2ccc(-c3ccc(-c4ccncc4)cc3)cc2)C1` [compound 235, (R)-6-((1-(cyclopropanecarbonyl)pyrrolidin-3-yl)methyl)-5-(4′-(pyridin-4-yl)-[1,1′-biphenyl]-4-yl)-4,6-diazaspiro[2.4]hept-4-en-7-one], the IC50 in assay [1] was 45.7 nM; in assay [2] it was 23.4 nM; in the assay with A2780 ovarian cells [3], > 10000 nM; with A2780 ovarian cells [4] it was 10 nM. The inhibition at 10 µM in assay [2] worked out at 111%.

On to `Cc1cc(-c2ccc3occc3c2)ccc1C1=NC2(CC2)C(=O)N1C[C@@H]1CCN(C(=O)C2CC2)C1` [compound 278, (R)-5-(4-(benzofuran-5-yl)-2-methylphenyl)-6-((1-(cyclopropanecarbonyl)pyrrolidin-3-yl)methyl)-4,6-diazaspiro[2.4]hept-4-en-7-one], for which the IC50 in assay [1] is 69.2 nM; in assay [2] it was 25.7 nM; in the assay on A2780 ovarian cells [3], > 10000 nM; with A2780 ovarian cells [4], ~692 nM. For the same compound, the inhibition at 10 µM in assay [2] amounted to 113%.

For `Cc1cc(-c2ccc3sccc3c2)ccc1C1=NC2(CC2)C(=O)N1C[C@@H]1CCN(C(=O)C2CC2)C1` [compound 279, (R)-5-(4-(benzo[d]thiophen-5-yl)-2-methylphenyl)-6-((1-(cyclopropanecarbonyl)pyrrolidin-3-yl)methyl)-4,6-diazaspiro[2.4]hept-4-en-7-one], the IC50 in assay [1] is 44.7 nM; in assay [2], 28.2 nM; with A2780 ovarian cells [3] it was > 10000 nM; in the assay on A2780 ovarian cells [4] it was 407 nM. Moreover, the inhibition at 10 µM in assay [2] came out at 107%.

Turning to `Cc1cc2cc(-c3ccc(C4=NC5(CC5)C(=O)N4C[C@@H]4CCN(C(=O)C5CC5)C4)c(C)c3)ccc2o1` [compound 280, (R)-6-((1-(cyclopropanecarbonyl)pyrrolidin-3-yl)methyl)-5-(2-methyl-4-(2-methylbenzofuran-5-yl)phenyl)-4,6-diazaspiro[2.4]hept-4-en-7-one], the IC50 in assay [1] is 126 nM; in assay [2], 30.2 nM; in the assay on A2780 ovarian cells [3], > 10000 nM; in the assay on A2780 ovarian cells [4], ~1950 nM. The inhibition at 10 µM in assay [2] amounted to 109%.

Turning to `Cc1cc2cc(-c3ccc(C4=NC5(CC5)C(=O)N4C[C@@H]4CCN(C(=O)C5CC5)C4)c(C)c3)ccc2s1` [compound 281, (R)-6-((1-(cyclopropanecarbonyl)pyrrolidin-3-yl)methyl)-5-(2-methyl-4-(2-methylbenzo[b]thiophen-5-yl)phenyl)-4,6-diazaspiro[2.4]hept-4-en-7-one], the IC50 in assay [1] was 110 nM; in assay [2], 44.7 nM; in the assay with A2780 ovarian cells [3], > 6170 nM; in the assay with A2780 ovarian cells [4], ~813 nM. The inhibition at 10 µM in assay [2] worked out at 114%.

Take `Cc1cc(-c2ccc3sc(C)c(C)c3c2)ccc1C1=NC2(CC2)C(=O)N1C[C@@H]1CCN(C(=O)C2CC2)C1` [compound 283, (R)-6-((1-(cyclopropanecarbonyl)pyrrolidin-3-yl)methyl)-5-(4-(2,3-dimethylbenzo[b]thiophen-5-yl)-2-methylphenyl)-4,6-diazaspiro[2.4]hept-4-en-7-one]: the IC50 in assay [1] was 93.3 nM; in assay [2], 41.7 nM; in the assay with A2780 ovarian cells [3], > 10000 nM; in the assay with A2780 ovarian cells [4] it was ~1860 nM. In addition, the inhibition at 10 µM in assay [2] worked out at 112%.

Consider `Cc1cc(-c2ccc3occc3c2)ccc1C1=NC2(CC2)C(=O)N1CC1CN(C(=O)C2CC2)C1` [compound 287, 5-(4-(benzofuran-5-yl)-2-methylphenyl)-6-((1-(cyclopropanecarbonyl)azetidin-3-yl)methyl)-4,6-diazaspiro[2.4]hept-4-en-7-one], for which the IC50 is 166 nM in assay [1], 43.7 nM in assay [2], > 10000 nM in the assay with A2780 ovarian cells [3] and ~282 nM in the assay with A2780 ovarian cells [4]. The inhibition at 10 µM in assay [2] was determined as 110%.

As to `Cc1cc2cc(-c3ccc(C4=NC5(CC5)C(=O)N4CC4CN(C(=O)C5CC5)C4)c(C)c3)ccc2o1` [compound 289, 6-((1-(cyclopropanecarbonyl)azetidin-3-yl)methyl)-5-(2-methyl-4-(2-methylbenzofuran-5-yl)phenyl)-4,6-diazspiro[2.4]hept-4-en-7-one], the IC50 in assay [1] is 324 nM; in assay [2], 97.7 nM; with A2780 ovarian cells [3], > 10000 nM; in the assay on A2780 ovarian cells [4], 1120 nM. For the same compound, the inhibition at 10 µM in assay [2] came out at 102%.

With `Cc1cc2cc(-c3ccc(C4=NC5(CC5)C(=O)N4C[C@@H]4CCN(C(=O)C5CC5)C4)cc3F)ccc2o1` [compound 387, 6-{[(3R)-1-(Cyclopropylcarbonyl)pyrrolidin-3-yl]methyl}-5-[3-fluoro-4-(2-methyl-1-benzofuran-5-yl)phenyl]-4,6-diazaspiro[2.4]hept-4-en-7-one], the IC50 in assay [1] was 759 nM; in assay [2], 219 nM; in the assay with A2780 ovarian cells [3], > 10000 nM; with A2780 ovarian cells [4] it was ~3240 nM. In addition, the inhibition at 10 µM in assay [2] stood at 103%.

As to `Cc1cc2cc(-c3ccc(C4=NC5(CC5)C(=O)N4C[C@@H]4CCN(C(=O)C5CC5)C4)cc3C)ccc2o1` [compound 388, 6-{[(3R)-1-(Cyclopropylcarbonyl)pyrrolidin-3-yl]methyl}-5-[3-methyl-4-(2-methyl-1-benzofuran-5-yl)phenyl]-4,6-diazaspiro[2.4]hept-4-en-7-one], the IC50 in assay [1] was 1100 nM; in assay [2] it was 355 nM; in the assay with A2780 ovarian cells [3], > 10000 nM; with A2780 ovarian cells [4] it was ~2450 nM. The inhibition at 10 µM in assay [2] stood at 99%.

For `O=C(C1CC1)N1CC(CN2C(=O)C3(CC3)N=C2c2ccc(-c3ccc4sccc4c3)c(F)c2)C1` [compound 404, 5-[4-(1-Benzothiophen-5-yl)-3-fluorophenyl]-6-{[1-(cyclopropylcarbonyl)azetidin-3-yl]methyl}-4,6-diazaspiro[2.4]hept-4-en-7-one], the IC50 was 490 nM in assay [1], 178 nM in assay [2], > 10000 nM in the assay on A2780 ovarian cells [3] and 1100 nM in the assay on A2780 ovarian cells [4]. Moreover, the inhibition at 10 µM in assay [2] came to 97%.

As for `O=C(C1CC1)N1CC[C@@H](CN2C(=O)C3(CC3)N=C2c2ccc(-c3nc4ccccc4[nH]3)cc2F)C1` [compound 538, 5-[4-(1H-Benzimidazol-2-yl)-2-fluorophenyl]-6-{[(3R)-1-(cyclopropylcarbonyl)pyrrolidin-3-yl]methyl}-4,6-diazaspiro[2.4]hept-4-en-7-one], the IC50 in assay [1] is 331 nM; in assay [2], 170 nM; with A2780 ovarian cells [3], ~10000 nM; in the assay with A2780 ovarian cells [4], 132 nM. Moreover, in assay [2], the inhibition at 10 µM is 99%.

With `COCc1nn(C)c2ccc(-c3ccc(C4=NC5(CC5)C(=O)N4CC4CN(C(=O)C5CC5)C4)c(C)c3)cc12` [compound 588, 6-{[1-(Cyclopropylcarbonyl)azetidin-3-yl]methyl}-5-{4-[3-(methoxymethyl)-1-methyl-1H-indazol-5-yl]-2-methylphenyl}-4,6-diazaspiro[2.4]hept-4-en-7-one], the IC50 in assay [1] is 1170 nM; in assay [2], 603 nM; with A2780 ovarian cells [3], > 10000 nM; with A2780 ovarian cells [4] it was ~676 nM. Besides, in assay [2], the inhibition at 10 µM was found to be 93%.

For the compound `COCc1nn(C)c2ccc(-c3ccc(C4=NC5(CC5)C(=O)N4CC4CN(C(=O)C5CC5)C4)c(F)c3)cc12` [compound 608, 6-{[1-(Cyclopropylcarbonyl)azetidin-3-yl]methyl}-5-{2-fluoro-4-[3-(methoxymethyl)-1-methyl-01H-indazol-5-yl]phenyl}-4,6-diazaspiro[2.4]hept-4-en-7-one], the IC50 in assay [1] is 1020 nM; in assay [2], 148 nM; in the assay on A2780 ovarian cells [3], > 10000 nM; with A2780 ovarian cells [4] it was 372 nM. The inhibition at 10 µM in assay [2] stood at 98%.

As to `CC(C)N1CCC2(CC1)N=C(c1ccc(-c3ccc4[nH]ncc4c3)cc1)N(C[C@@H]1CCN(C(=O)C3CC3)C1)C2=O` [compound 743, 3-{[(3R)-1-(Cyclopropylcarbonyl)pyrrolidin-3-yl]methyl}-2-[4-(1H-indazol-5-yl)phenyl]-8-(1-methylethyl)-1,3,8-triazaspiro[4.5]dec-1-en-4-one], the IC50 in assay [1] was 1580 nM; in assay [2], 708 nM; in the assay on A2780 ovarian cells [3], > 10000 nM; in the assay on A2780 ovarian cells [4] it was 2090 nM. The inhibition at 10 µM in assay [2] was 90%.
